Columns and labels:
Assay type in all cases: cell-based
[1] = target: T1, human wildtype CFTR (Homo sapiens, UniProt P13569); experiment: Fluorescence platereader assay of CFTR-mediated iodide influx (YFP quenching) in FRT cells
T1 construct: expressed in transfected cells; host or cells: Fischer rat thyroid (FRT) cells
Method in brief: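 Fischer rat thyroid cells co-expressing human wildtype CFTR and the YFP-H148Q/1152L halide sensor were seeded at 20,000 cells per well in 96-well black-walled plates and assayed 48 h later at confluence. After PBS washes and a 15 min incubation, CFTR was maximally activated with an agonist mixture. Fluorescence was recorded for 2 s before and 10 s after adding 160 μL iodide-substituted PBS, and iodide influx rates came from non-linear regression.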

[2] = system: cellular cAMP production; experiment: Cellular cAMP assayed in CHO-K1 cells, basal and forskolin-stimulated; conditions: 10 μM; 20 μM forskolin
Description: FIG. 3A: Apical membrane current measured in CFTR-expressing FRT cells in the presence of a transepithelial chloride gradient and with amphotericin B permeabilization of the basolateral membrane. CFTR was activated by CPT-cAMP (chlorophenylthio-cAMP) (100 μM), with increasing concentrations of PPQ-102 added as shown. Left: Original recording. Right: Dose-response (S.E. n=4). FIG. 3B: Measurements as in FIG. 3A, but with apigenin (100 μM) or IBMX (100 μM) as agonists. The data are representative of 3 sets of experiments. FIG. 3C: Short-circuit current measured in T84 (left) and human bronchial airway epithelial cells (right). CFTR was maximally activated by 10 μM forskolin and 100 μM IBMX (‘forsk’). Current in the absence of inhibitor is indicated as ‘control.’ FIG. 3D: Calcium-activated chloride channels were activated by UTP (100 μM) in cystic fibrosis (CFTR-deficient) human bronchial epithelial cells, with PPQ-102 added as indicated. ENaC (epithelial sodium channel) was inhibited by amiloride (10 μM). FIG. 3E: Cellular cAMP assayed in CHO—K1 cells under basal conditions and after addition of 20 μM forskolin (S.E. n=4, differences with PPQ-102, not significant).

[3] = target: T1, human wildtype CFTR; experiment: Whole-cell patch-clamp in CFTR-expressing FRT cells; conditions: 0.5 μM; voltage-independent block
Description: D. Patch-Clamp Analysis—Whole cell recordings were performed using FRT cells stably expressing human wildtype CFTR. The pipette solution contained 140 mM N-methyl D-glucamine chloride (NMDG-Cl), 5 mM EGTA, 1 mM MgCl2, 1 mM Tris-ATP, and 10 mM HEPES (pH 7.2), and the bath solution contained 140 mM N-methyl D-glucamine chloride, 1 mM CaCl2, 1 mM MgCl2, 10 mM glucose and 10 mM HEPES (pH 7.4). Experiments were performed at room temperature (22-25° C.). Pipettes were pulled from borosilicate glass and had resistances of 3-5 Mohm after fire polishing. […] After establishing the whole-cell configuration, CFTR was activated by adding forskolin and 3-isobutyl-1-methylxanthine (IBMX). Whole cell currents were elicited by applying hyperpolarizing and depolarizing voltage pulses from a holding potential of 0 mV to potentials between −100 mV and +100 mV in steps of 20 mV. Current was filtered at 5 kHz and digitized and analyzed using an AxoScope 10.0 system and a Digidata® 1440A AC/DC converter (Molecular Devices, Sunnyvale, Calif.). The single channel characteristics of CFTR were analyzed in the cell-attached configuration using fire-polished pipettes with a resistance of 10-15 Mohm. […] Single channel data were digitally filtered at 25 Hz, and analyzed using Clampfit 10.0 software (Axon Instruments).

T1 sequence (P13569 whole entry): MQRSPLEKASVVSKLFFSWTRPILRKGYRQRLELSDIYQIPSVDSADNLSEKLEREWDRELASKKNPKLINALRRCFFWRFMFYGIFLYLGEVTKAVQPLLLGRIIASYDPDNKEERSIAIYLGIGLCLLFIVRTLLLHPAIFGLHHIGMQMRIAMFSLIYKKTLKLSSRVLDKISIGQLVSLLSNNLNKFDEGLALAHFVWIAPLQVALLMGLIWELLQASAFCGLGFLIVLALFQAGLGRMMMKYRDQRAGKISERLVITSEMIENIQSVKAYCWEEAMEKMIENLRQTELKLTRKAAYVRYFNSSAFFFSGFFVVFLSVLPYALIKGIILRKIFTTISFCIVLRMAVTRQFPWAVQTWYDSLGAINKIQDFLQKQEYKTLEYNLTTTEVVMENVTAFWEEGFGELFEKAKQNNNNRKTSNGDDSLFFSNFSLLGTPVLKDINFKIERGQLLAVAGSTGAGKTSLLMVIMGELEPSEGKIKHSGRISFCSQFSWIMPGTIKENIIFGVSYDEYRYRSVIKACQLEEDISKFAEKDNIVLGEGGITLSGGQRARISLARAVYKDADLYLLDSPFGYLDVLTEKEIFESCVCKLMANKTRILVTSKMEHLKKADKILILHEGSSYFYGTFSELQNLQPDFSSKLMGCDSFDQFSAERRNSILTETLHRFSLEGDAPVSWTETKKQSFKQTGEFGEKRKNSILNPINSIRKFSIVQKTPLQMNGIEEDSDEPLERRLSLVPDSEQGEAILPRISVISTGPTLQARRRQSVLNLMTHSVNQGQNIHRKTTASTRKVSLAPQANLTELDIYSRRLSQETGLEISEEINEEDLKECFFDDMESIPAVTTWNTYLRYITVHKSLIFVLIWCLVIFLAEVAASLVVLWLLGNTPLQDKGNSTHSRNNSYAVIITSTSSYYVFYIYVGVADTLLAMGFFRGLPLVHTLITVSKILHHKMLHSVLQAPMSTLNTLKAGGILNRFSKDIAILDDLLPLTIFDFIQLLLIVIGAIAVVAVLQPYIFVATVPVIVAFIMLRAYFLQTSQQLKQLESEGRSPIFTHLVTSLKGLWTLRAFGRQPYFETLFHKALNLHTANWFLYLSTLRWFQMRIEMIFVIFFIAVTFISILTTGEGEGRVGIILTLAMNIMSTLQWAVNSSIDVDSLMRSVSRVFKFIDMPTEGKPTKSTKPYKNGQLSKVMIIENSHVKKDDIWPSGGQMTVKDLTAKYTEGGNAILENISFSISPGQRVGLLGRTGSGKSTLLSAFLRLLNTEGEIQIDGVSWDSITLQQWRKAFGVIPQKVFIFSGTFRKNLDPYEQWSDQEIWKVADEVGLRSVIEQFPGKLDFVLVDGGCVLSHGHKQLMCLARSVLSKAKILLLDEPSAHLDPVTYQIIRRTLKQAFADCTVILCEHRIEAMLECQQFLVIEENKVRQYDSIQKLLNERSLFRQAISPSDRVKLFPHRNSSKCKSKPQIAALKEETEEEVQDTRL

SMILES: Cc1ccc(C2Nc3ccccc3-n3c(-c4ccccc4)c4c(=O)n(C)c(=O)n(C)c4c32)o1 (racemic) [PPQ-102, 7,9-Dimethyl-11-phenyl-6-(5-methylfuran-2-yl)-5,6-dihydro-pyrimido[4′,5′-3,4]pyrrolo[1,2-a]quinoxaline-8,10-(7H,9H)-dione]
- inhibition at 5 µM ([1]; FRT, Table 2, screening, 5 μM, read-out: % Inhibition at 5 μM): 85%
- inhibition at 25 µM ([1]; FRT, Table 2, screening, 25 μM, read-out: % Inhibition at 25 μM): 97%
- IC50 ([1]; apparent IC50 from concentration-inhibition data, fluorescence platereader assay): 800 nM
- effect on basal or forskolin-stimulated cAMP production [2]: no significant effect
- CFTR current-voltage relationship after addition [3]: remained linear
